Test results taken from US20210395313A1, “PEPTIDE PAC1 ANTAGONISTS” (AMGEN INC., priority 2017, published 2021).
Bridges are numbered along the chain shown (N, C = ends). Where no end group is shown, it is not given here.

T1: PAC1 (Rattus norvegicus, UniProt P32215)
T1 construct: Naive male Sprague Dawley® rats aged 8-12 weeks at the time of the study were purchased from Charles River Laboratories; tissue Charles River Laboratories; host or cells: live male Sprague Dawley rats; dermal blood flow on abdominal skin
T1 sequence (P32215 20-523): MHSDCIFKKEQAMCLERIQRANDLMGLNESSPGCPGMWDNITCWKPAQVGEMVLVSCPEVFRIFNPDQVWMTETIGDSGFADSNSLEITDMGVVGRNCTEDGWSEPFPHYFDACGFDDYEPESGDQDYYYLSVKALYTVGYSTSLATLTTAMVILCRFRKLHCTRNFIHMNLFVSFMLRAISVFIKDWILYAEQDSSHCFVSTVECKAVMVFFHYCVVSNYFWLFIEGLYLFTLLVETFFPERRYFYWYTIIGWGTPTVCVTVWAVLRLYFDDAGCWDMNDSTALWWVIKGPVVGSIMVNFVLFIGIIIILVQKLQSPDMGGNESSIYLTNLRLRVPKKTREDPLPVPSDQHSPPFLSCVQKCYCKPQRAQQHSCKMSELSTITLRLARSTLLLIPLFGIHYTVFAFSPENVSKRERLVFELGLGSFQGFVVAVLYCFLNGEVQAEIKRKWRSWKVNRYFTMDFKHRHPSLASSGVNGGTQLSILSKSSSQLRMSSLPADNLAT

T2: human PAC1 receptor (Homo sapiens, UniProt P41586)
T2 construct: SHSY-5Y (human neuroblastoma cell line) and RG-2 (rat glioma cell line) cells endogenously express human and rat PAC1 receptors, respectively; endogenous in cells; host or cells: SHSY-5Y human neuroblastoma cells
T2 sequence (P41586 21-468): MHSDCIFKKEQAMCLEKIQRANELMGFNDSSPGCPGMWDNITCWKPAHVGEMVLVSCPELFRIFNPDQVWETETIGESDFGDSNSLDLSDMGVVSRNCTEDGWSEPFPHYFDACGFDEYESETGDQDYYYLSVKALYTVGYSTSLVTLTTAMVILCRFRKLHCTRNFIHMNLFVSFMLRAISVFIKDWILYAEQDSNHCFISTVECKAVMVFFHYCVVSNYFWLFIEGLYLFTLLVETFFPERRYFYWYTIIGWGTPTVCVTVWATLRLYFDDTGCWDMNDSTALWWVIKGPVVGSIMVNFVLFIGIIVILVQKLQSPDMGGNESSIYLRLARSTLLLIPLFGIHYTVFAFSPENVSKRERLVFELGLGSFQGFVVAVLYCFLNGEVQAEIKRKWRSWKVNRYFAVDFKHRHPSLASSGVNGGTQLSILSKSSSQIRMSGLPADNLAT

T3: rat PAC1 receptor (Rattus norvegicus, UniProt P32215)
T3 construct: SHSY-5Y (human neuroblastoma cell line) and RG-2 (rat glioma cell line) cells endogenously express human and rat PAC1 receptors, respectively; endogenous in cells; host or cells: RG-2 rat glioma cells
T3 sequence (P32215 20-523): T1 sequence (P32215 20-523)

T4: rat PAC1 receptor (rat, UniProt P32215 20-523)
T4 sequence: T1 sequence (P32215 20-523)


Key:
[1] = target: T1, PAC1; assay: Rat maxadilan-induced increase in blood flow (MIIBF) PD model, laser Doppler imaging; type: in vivo; details: for inhibition of MIIBF (dermal blood flow): single bolus i.v., lowest dose of 0.1 mg/kg, 5 min prior to maxadilan, 35 min post peptide treatment
Procedure: PAC1 peptide antagonists were also evaluated in an in vivo pharmacodynamic model—a model of maxadilan-induced increase in blood flow.
Naive male Sprague Dawley® rats aged 8-12 weeks at the time of the study were purchased from Charles River Laboratories. Animals were group-housed in non-sterile, ventilated micro-isolator housing in Amgen Assessment and Accreditation of Laboratory Animal Committee (AAALAC)-accredited facility. Animals had ad libitum access to pelleted feed (Harlan Teklad 2020X, Indianapolis, IN) and water (on-site generated reverse osmosis) via automatic watering system.
All PAC1 peptides were tested in a rat maxadilan-induced increase in blood flow (MIIBF) pharmacodynamic (PD) model with a laser Doppler imaging. A dosing solution of maxadilan (Bachem, H6734.0500) was prepared fresh daily by diluted maxadilan stock solution (0.5 mg/mL) in 1× PBS to the final concentration of 0.5 μg/mL. All tested peptides were prepared in 1× PBS at different concentrations depend on the dose required for the experiment and given in a single bolus i.v. or s.c. injection. A laser Doppler imager (LDI-2, Moor Instruments, Ltd, Wilmington, Del.) was used to measure dermal blood flow (DBF) on the shaved skin of the rat abdomen with a low-power laser beam generated by a 633 nm helium-neon bulb. The measurement resolution was 0.2 to 2 mm, with scanning distances between the instrument aperture and the tissue surface of 30 cm. In this report, DBF was measured and expressed as % change from baseline [100×(individual post-CAP flux-individual baseline flux)/individual baseline flux] and further calculated to % Inhibition to quantify the magnitude of drug effect [Mean of vehicle % change from BL−individual drug treated rat % change from BL)/Mean of vehicle % change from BL].
On the test day, following anesthetization with propofol, the rat's abdominal area was shaved and each animal was placed in a supine position on a temperature-controlled circulating warm-water pad to maintain a stable body temperature during the study. After a 10 to 15 minute stabilization period, a rubber O-ring (0.925 cm inner diameter, O-Rings West, Seattle, Wash.) was placed on the rat abdomen without directly positioning it over a visible blood vessel while the rat placed in a supine position on a temperature-controlled circulating warm-water pad to maintain a stable body temperature during the study. After placement of an O-ring on the selected area, a baseline (BL) DBF measurement was taken. After the BL scan, PAC1 peptides were administrated either 5 min for i.v., or 15 min for s.c. then followed by 20 μL (in 0.5 μg/mL) intradermal injection of maxadilan at the center of the O-ring. The post-maxadilan DBF was measured at 30 min and the post peptides time was 35 min for i.v. and 45 min for s.c. respectively. The O-ring serves as an area of interest in which the DBF will be analyzed within the O-ring.
All DBF results were expressed as the mean±SEM. A one-way ANOVA followed by Dunnett's Multiple Comparison Test (MCT) was used to assess the statistical significance of PAC1 peptides effects relative to the vehicle within the study. A p<0.05 was used to determine significance between any two groups.

[2] = in vitro; details: rat, plasma
Procedure: (§1) To model degradation in blood, PAC1 peptides of the present application were incubated in vitro with rat plasma. The stability analysis was conducted in a manner similar to as previously described by Souverain et al. (J. of Pharmaceutical and Biomedical Analysis, 35 (2004) 913-920).
(§2) Briefly, PAC1 peptides were spiked into rat plasma and incubated at 37° C. for up to 6 hours. Employing the reverse stability technique for various time points, plasma samples were quenched by the addition of perchloric acid in water containing internal standard (IS) and vortexed undergoing protein precipitation extraction (PPE). Following the vortex mix, samples were centrifuged and the supernatant containing PAC1 peptide and IS was subsequently analyzed using a liquid chromatography mass-spectrometry (LC-MS) system (Sciex® API 5500). The peak area ratio of intact PAC1 peptide to IS was determined for each time point. Peptide stability was reported as a percentage of the peak area ratio at each time point relative to the peak are ratio of a baseline sample (pre-incubation).

[3] = target: T2, human PAC1 receptor; assay: LANCE Ultra cAMP accumulation antagonist assay in SHSY-5Y cells; type: cell-based;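 further: inhibition of cAMP accumulation evoked by PAC1 agonist at its EC80 in SHSY-5Y cells endogenously expressing receptor, 30 min preincubation then 15 min agonist, TR-FRET readout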
[4] = rat plasma, 37° C., 0 h (baseline)
Procedure: as §1, §2

[5] = target: T3, rat PAC1 receptor; assay: LANCE Ultra cAMP accumulation antagonist assay in RG-2 cells; type: cell-based;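 further: RG-2 rat glioma cells endogenously expressing PAC1, test peptide preincubated 30 min, then PAC1 agonist added at its EC80 for 15 min, cAMP accumulation read by LANCE Ultra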
[6] = target: T4, rat PAC1 receptor; assay: cell-based or functional assay
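Wherever % Intact Peptide Remaining is given: peptides incubated in vitro in rat plasma at 37 °C up to 6 h, intact peptide quantified by LC-MS versus internal standard, expressed relative to pre-incubation baseline (100%).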

Molecule | inhibition of maxadilan-induced increase in DBF ([1]; single bolus s.c., lowest dose of 0.3 mg/kg, 15 min prior to maxadilan, 45 min post peptide treatment) | remaining at 0.5 h [2] [%] | remaining at 1 h [2] [%] | remaining at 2 h [2] [%] | remaining at 4 h [2] [%] | remaining at 6 h [2] [%] | IC50 [3] [nM] | % Intact Peptide Remaining [4] [%] | IC50 [5] [nM] | inhibition of MIIBF (dermal blood flow) [1] | rPAC1 IC50 with maxadilan challenge (cAMP assay, RG-2 cells); 100 nM > B ≥ 1 nM [6] [nM]
CDATCQFRKAIDDCYYRSWHSNVPGSVFKACMKQKKKEWKAG-NH2 (disulfide 1-5, 14-31) [SEQ ID NO 77] | statistically significant inhibition | 97.9 | 106 | 104 | 89.6 | 110 | 0.01 to 1 | 100 | 0.01 to 1 | – | –
CDATCQFRKAIDDCHLLAWHANVPGSVFKACMKQKKKEFKAG-NH2 (disulfide 1-5, 14-31) [SEQ ID NO 140] | – | 101 | 91.4 | 93.4 | 107 | 108 | – | 100 | – | – | –
CDATCQFRKAIDDCQKQAHHSNVPGSVFKACMKQKKKEFKAGY (disulfide 1-5, 14-31) [SEQ ID NO 164] | – | 94.3 | 113 | 108 | 106 | 96.5 | – | 100 | – | – | –
CC[C@H](C)[C@H](NC(=O)[C@H](C)NC(=O)[C@H](CCCCN)NC(=O)[C@H](CCCNC(=N)N)NC(=O)[C@H](Cc1ccccc1)NC(=O)[C@H](CCC(N)=O)NC(=O)[C@@H]1CSSC[C@H](N)C(=O)N[C@@H](CC(=O)O)C(=O)N[C@@H](C)C(=O)N[C@@H]([C@@H](C)O)C(=O)N1)C(=O)N[C@@H](CC(=O)O)C(=O)N[C@@H](CC(=O)O)C(=O)N[C@H]1CSSC[C@@H](C(=O)N[C@@H](CCSC)C(=O)N[C@@H](CCCCN)C(=O)N[C@@H](CCC(N)=O)C(=O)N[C@@H](CCCCN)C(=O)N[C@@H](CCCCN)C(=O)N[C@@H](CCCCN)C(=O)N[C@@H](CCC(=O)O)C(=O)N[C@@H](Cc2ccccc2)C(=O)N[C@@H](CCCCN)C(=O)N[C@@H](C)C(=O)NCC(N)=O)NC(=O)C(C)(C)NC(=O)[C@H](CCCCN)NC(=O)[C@H](Cc2ccccc2)NC(=O)[C@H](C(C)C)NC(=O)[C@H](CO)NC(=O)CNC(=O)[C@@H]2CCCN2C(=O)[C@H](C(C)C)NC(=O)[C@H](CC(N)=O)NC(=O)[C@H](CO)NC(=O)[C@H](Cc2c[nH]cn2)NC(=O)[C@H](Cc2c[nH]cn2)NC(=O)[C@H](C)NC(=O)[C@H](CCC(N)=O)NC(=O)[C@H](CCCCN)NC(=O)[C@H](CCC(N)=O)NC1=O [SEQ ID NO 283] | – | 87.5 | 112 | 101 | 115 | 98.9 | 1 to 100 | 100 | 0.01 to 1 | statistically significant inhibition | –
CDATCQFRKAIDDCARQAHHSNVPGSVFKACMKQKKKEWKAGH (disulfide 1-5, 14-31) [SEQ ID NO 151] | – | 120 | 87 | 104 | 112 | 107 | 0.01 to 1 | 100 | 0.01 to 1 | – | –
CDATCQFRKAIDDCYYYAMHSNVPGSVWKACMKQKKKEFKAG-NH2 (disulfide 1-5, 14-31) [SEQ ID NO 150] | – | 117 | 89.7 | 92.1 | 90.2 | 92.8 | – | 100 | – | – | –
CC[C@H](C)[C@H](NC(=O)[C@H](C)NC(=O)[C@H](CCCCN)NC(=O)[C@H](CCCNC(=N)N)NC(=O)[C@H](Cc1ccccc1)NC(=O)[C@H](CCC(N)=O)NC(=O)[C@@H]1CSSC[C@H](N)C(=O)N[C@@H](CC(=O)O)C(=O)N[C@@H](C)C(=O)N[C@@H]([C@@H](C)O)C(=O)N1)C(=O)N[C@@H](CC(=O)O)C(=O)N[C@@H](CC(=O)O)C(=O)N[C@H]1CSSC[C@@H](C(=O)N[C@@H](CCSC)C(=O)N[C@@H](CCCCN)C(=O)N[C@@H](CCC(N)=O)C(=O)N[C@@H](CCCCN)C(=O)N[C@@H](CCCCN)C(=O)N[C@@H](CCCCN)C(=O)N[C@@H](CCC(=O)O)C(=O)N[C@@H](Cc2ccccc2)C(=O)N[C@@H](CCCCN)C(=O)N[C@@H](C)C(=O)NCC(N)=O)NC(=O)[C@H](C)NC(=O)[C@H](CCCCN)NC(=O)[C@H](Cc2ccccc2)NC(=O)[C@H](C(C)C)NC(=O)[C@H](CO)NC(=O)CNC(=O)[C@@H]2CCCN2C(=O)[C@H](C(C)C)NC(=O)[C@H](CC(N)=O)NC(=O)[C@H](CO)NC(=O)[C@H](Cc2c[nH]cn2)NC(=O)[C@H](Cc2c[nH]cn2)NC(=O)[C@H](C)NC(=O)[C@H](CCC(N)=O)NC(=O)[C@H](CCCCN)NC(=O)[C@H](CCC(N)=O)NC1=O [SEQ ID NO 233] | – | – | – | – | – | – | 1 to 100 | – | 0.01 to 1 | statistically significant inhibition | –
GCDATCQFRKAIDDCVRQAHHSNVPGSVFKACMKQKKKEWKAGH (disulfide 2-6, 15-32) [SEQ ID NO 88] | – | 81.4 | 90.8 | 84 | 110 | 100 | 0.01 to 1 | 100 | 0.01 to 1 | – | –
CDATCQFRKAIDDCARQAYHSFKACMKQKKKEWKAH (disulfide 1-5, 14-25) [SEQ ID NO 451] | – | – | – | – | – | – | – | – | – | – | < 100
CDATCQFRKAIDDCARQAYHSACMKQKKKEWKAGH (disulfide 1-5, 14-23) [SEQ ID NO 449] | – | – | – | – | – | – | – | – | – | – | < 100
CDATCQFRKAIDDCARQAYHSFKACMKQKKKEWKH (disulfide 1-5, 14-25) [SEQ ID NO 450] | – | – | – | – | – | – | – | – | – | – | < 100
